Key:
smallflower flatsedge = experiment: Test B flood test smallflower flatsedge; type: in vivo, Cyperus difformis; details: for S. Flatsedge plant response rating: scale of 0 to 10 where 0 is no effect and 10 is complete control
How it was run: (§1)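 Each value is a visual injury score relative to controls, with 10 meaning complete control and 0 no effect. Evaluation took place twelve to sixteen days after the 2-leaf-stage plants were treated and kept in the greenhouse.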

giant foxtail = experiment: Test B pre/postemergence giant foxtail; type: in vivo, Setaria faberii
How it was run: (§2)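 Herbicidal effect was estimated by eye on a ten-point control scale after plants spent twelve to sixteen days in a greenhouse following soil or foliar treatment. Foliar sprays targeted plants at one to four leaves; all doses were formulated in a non-phytotoxic solvent with surfactant.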

crabgrass = experiment: Test B pre/postemergence crabgrass; type: in vivo, Digitaria sanguinalis
How it was run: as §2

cocklebur = experiment: Test B pre/postemergence cocklebur; type: in vivo, Xanthium strumarium
How it was run: as §2

pigweed = experiment: Test B pre/postemergence pigweed; type: in vivo, Amaranthus retroflexus
How it was run: as §2

sugar beet = experiment: Test B pre/postemergence sugar beet; type: in vivo, Beta vulgaris
How it was run: as §2

duck salad = experiment: Test B flood test duck salad; type: in vivo, Heteranthera limosa; details: for Plant response rating, Ducksalad: scale 0 to 10, 0 is no effect, 10 is complete control; for Ducksalad plant response rating: scale of 0 to 10 where 0 is no effect and 10 is complete control
How it was run: as §1

corn = experiment: Test B pre/postemergence corn; type: in vivo, Zea mays
How it was run: as §2

soybean = experiment: Test B pre/postemergence soybean; type: in vivo, Glycine max
How it was run: as §2

velvetleaf = experiment: Test B pre/postemergence velvetleaf; type: in vivo, Abutilon theophrasti
How it was run: as §2

wild oat = experiment: Test B pre/postemergence wild oat; type: in vivo, Avena fatua
How it was run: as §2

rice = experiment: Test B flood test rice; type: in vivo, Oryza sativa; details: for Rice plant response rating: scale of 0 to 10 where 0 is no effect and 10 is complete control
How it was run: as §1

rape = experiment: Test B pre/postemergence rape; type: in vivo, Brassica napus
How it was run: as §2

wheat = experiment: Test B pre/postemergence wheat; type: in vivo, Triticum aestivum
How it was run: as §2

blackgrass = experiment: Test B pre/postemergence blackgrass; type: in vivo, Alopecurus myosuroides
How it was run: as §2

surinam grass = experiment: Test B pre/postemergence surinam grass; type: in vivo, Brachiaria decumbens
How it was run: as §2

[1] = Postemergence section (flood test species), Rate 500 g/ha
[2] = Rate 62 g/ha, Postemergence (flood test species)
[3] = flood test species, listed under Postemergence, Rate 250 g/ha, scale 0 to 10, 0 is no effect, 10 is complete control
[4] = Postemergence, Rate 125 g/ha, scale 0 to 10, 0 is no effect, 10 is complete control
[5] = Postemergence, Rate 250 g/ha, scale 0 to 10, 0 is no effect, 10 is complete control
[6] = Postemergence, Rate 500 g/ha, scale of 0 to 10 where 0 is no effect and 10 is complete control
[7] = Preemergence, Rate 62 g/ha, scale 0 to 10 (0 no effect, 10 complete control)
[8] = Preemergence, Rate 125 g/ha, scale of 0 to 10 where 0 is no effect and 10 is complete control
[9] = Preemergence, Rate 250 g/ha, scale 0 to 10, 0 is no effect, 10 is complete control
[10] = Preemergence, Rate 500 g/ha, scale 0 to 10, 0 is no effect, 10 is complete control
[11] = Rate 62 g/ha, Postemergence, scale of 0 to 10 where 0 is no effect and 10 is complete control
[12] = Preemergence, Rate 250 g/ha, scale of 0 to 10 where 0 is no effect and 10 is complete control

## CCOC(=O)C=C(Cn1c(=O)on(C(=O)N(c2ccc(F)cc2)C(C)C)c1=O)OCC [Compound 396]
Smallflower flatsedge; [1]
  S. Flatsedge plant response rating: 0
Smallflower flatsedge; [2]
  S. Flatsedge plant response rating: 0
Smallflower flatsedge; [3]
  Plant response rating, S. Flatsedge: 0
Giant foxtail; [4]
  Plant response rating, Giant foxtail: 0
Giant foxtail; [5]
  Plant response rating, Giant foxtail: 2
Giant foxtail; [6]
  Giant foxtail plant response rating: 2
Giant foxtail; [7]
  Plant response rating, Giant foxtail: 2
Giant foxtail; [8]
  Plant response rating, Giant foxtail: 10
Giant foxtail; [9]
  Giant foxtail plant response rating: 10
Giant foxtail; [10]
  Giant foxtail plant response rating: 10
Giant foxtail; [11]
  Giant foxtail plant response rating: 0
crabgrass; [4]
  Plant response rating, Crabgrass: 0
crabgrass; [5]
  Plant response rating, Crabgrass: 2
crabgrass; [6]
  Crabgrass plant response rating: 2
crabgrass; [7]
  Plant response rating, Crabgrass: 0
crabgrass; [8]
  Plant response rating, Crabgrass: 7
crabgrass; [9]
  Crabgrass plant response rating: 10
crabgrass; [10]
  Crabgrass plant response rating: 10
crabgrass; [11]
  Crabgrass plant response rating: 0
cocklebur; [4]
  Plant response rating, Cocklebur: 0
cocklebur; [5]
  Plant response rating, Cocklebur: 0
cocklebur; [6]
  Cocklebur plant response rating: 0
cocklebur; [7]
  Plant response rating, Cocklebur: 0
cocklebur; [8]
  Plant response rating, Cocklebur: 0
cocklebur; [9]
  Cocklebur plant response rating: 0
cocklebur; [10]
  Cocklebur plant response rating: 0
cocklebur; [11]
  Cocklebur plant response rating: 0
pigweed; [5]
  Plant response rating, Redroot pigweed: 0
pigweed; [6]
  Redroot pigweed plant response rating: 0
pigweed; [7]
  Plant response rating, Redroot pigweed: 0
pigweed; [8]
  Plant response rating, Redroot pigweed: 0
pigweed; [9]
  Redroot pigweed plant response rating: 4
pigweed; [10]
  Redroot pigweed plant response rating: 8
pigweed; [11]
  Redroot pigweed plant response rating: 0
Sugar beet; [5]
  Plant response rating, Sugarbeets: 0
Sugar beet; [6]
  Sugarbeets plant response rating: 3
Sugar beet; [7]
  Plant response rating, Sugarbeets: 0
Sugar beet; [8]
  Plant response rating, Sugarbeets: 0
Sugar beet; [9]
  Sugarbeets plant response rating: 0
Sugar beet; [10]
  Sugarbeets plant response rating: 2
Sugar beet; [11]
  Sugarbeets plant response rating: 0
Duck salad; Postemergence (flood test), Rate 125 g/ha
  Plant response rating, Ducksalad: 0
Duck salad; [1]
  Ducksalad plant response rating: 0
Duck salad; [2]
  Ducksalad plant response rating: 0
Duck salad; flood test species, listed under Postemergence, Rate 250 g/ha
  Plant response rating, Ducksalad: 0
corn; [4]
  Plant response rating, Corn: 0
corn; [5]
  Plant response rating, Corn: 0
corn; [6]
  Corn plant response rating: 0
corn; [7]
  Plant response rating, Corn: 0
corn; [8]
  Plant response rating, Corn: 0
corn; [9]
  Corn plant response rating: 0
corn; [10]
  Corn plant response rating: 0
corn; [11]
  Corn plant response rating: 0
soybean; [5]
  Plant response rating, Soybean: 3
soybean; [6]
  Soybean plant response rating: 6
soybean; [7]
  Plant response rating, Soybean: 0
soybean; [8]
  Plant response rating, Soybean: 0
soybean; [9]
  Soybean plant response rating: 0
soybean; [10]
  Soybean plant response rating: 0
soybean; [11]
  Soybean plant response rating: 2
velvetleaf; [5]
  Plant response rating, Velvetleaf: 0
velvetleaf; [6]
  Velvetleaf plant response rating: 0
velvetleaf; [7]
  Plant response rating, Velvetleaf: 0
velvetleaf; [8]
  Plant response rating, Velvetleaf: 0
velvetleaf; [9]
  Velvetleaf plant response rating: 0
velvetleaf; [10]
  Velvetleaf plant response rating: 0
velvetleaf; [11]
  Velvetleaf plant response rating: 0
Wild oat; [6]
  Wild oats plant response rating: 0
Wild oat; [7]
  Plant response rating, Wild oats: 0
Wild oat; [8]
  Plant response rating, Wild oats: 0
Wild oat; [9]
  Wild oats plant response rating: 2
Wild oat; [10]
  Wild oats plant response rating: 4
Wild oat; [11]
  Wild oats plant response rating: 0
rice; [1]
  Rice plant response rating: 0
rice; [2]
  Rice plant response rating: 0
rice; [3]
  Plant response rating, Rice: 0
rape; [5]
  Plant response rating, Rape: 0
rape; [6]
  Rape plant response rating: 6
rape; [7]
  Plant response rating, Rape: 0
rape; [8]
  Plant response rating, Rape: 0
rape; [9]
  Rape plant response rating: 0
rape; [10]
  Rape plant response rating: 0
rape; [11]
  Rape plant response rating: 0
wheat; [6]
  Wheat plant response rating: 0
wheat; [7]
  Plant response rating, Wheat: 0
wheat; [8]
  Plant response rating, Wheat: 0
wheat; [9]
  Wheat plant response rating: 0
wheat; [10]
  Wheat plant response rating: 0
wheat; [11]
  Wheat plant response rating: 0
blackgrass; [4]
  Plant response rating, Blackgrass: 2
blackgrass; [5]
  Plant response rating, Blackgrass: 3
blackgrass; [6]
  Blackgrass plant response rating: 6
blackgrass; [7]
  Plant response rating, Blackgrass: 0
blackgrass; [8]
  Plant response rating, Blackgrass: 0
blackgrass; [12]
  Blackgrass plant response rating: 3
blackgrass; [10]
  Blackgrass plant response rating: 5
blackgrass; [11]
  Blackgrass plant response rating: 0
Surinam grass; [4]
  Plant response rating, B. signalgrass: 0
Surinam grass; [5]
  Plant response rating, B. signalgrass: 0
Surinam grass; [6]
  B. signalgrass plant response rating: 0
Surinam grass; [7]
  Plant response rating, B. signalgrass: 0
Surinam grass; [8]
  Plant response rating, B. signalgrass: 0
Surinam grass; [12]
  B. signalgrass plant response rating: 3
Surinam grass; Preemergence, Rate 500 g/ha, scale of 0 to 10 where 0 is no effect and 10 is complete control
  B. signalgrass plant response rating: 5
Surinam grass; [11]
  B. signalgrass plant response rating: 0

Reference: US6737383B1, “Herbicidal oxadiazolidines” (priority 1999, dated 2004)
